Data from patent publication US6900216B2, “Dihydroimidazo[2,1-b]thiazole and dihydro-5h-thiazolo[3,2-A]pyrimidines as antidepressant agents” (Knoll GmbH, priority 2000, dated 2005).

Key:
[1] = system: muscarinic receptors; assay: Muscarinic binding: displacement of [3H]N-methylscopolamine, rat frontal cortical membranes; settings: for Muscarinic % displacement at 10^−6 M: 10^−6 M test compound, single determination, [3H]N-methylscopolamine; for Ki: [3H]N-methylscopolamine 0.15 nM, rat frontal cortical membranes
Method: Frontal cortical tissue from the brains of male Charles River rats weighing 150-250 g was homogenised in ice-cold 20 mM HEPES buffer, pH 7.5 (measured at 25° C.) containing 100 mM sodium chloride and 10 mM magnesium chloride (1:10 w/v) using a Polytron PT3100 (speed setting 21,700 rpm, 3×5 seconds) and centrifuged at 49,500 g for 30 minutes at 4° C. The supernatant was discarded and the pellet rehomogenised in 20 mM HEPES buffer, pH 7.5 containing 100 mM sodium chloride and 10 mM magnesium chloride (equivalent to 12.5 mg wet weight of tissue/ml). Membranes were stored at −80° C. until required.
Membranes were thawed, diluted 1:10 in ice-cold 20 mM HEPES buffer, pH 7.5 containing 100 mM sodium chloride and 10 mM magnesium chloride and homogenised using a Polytron PT3100 as above. Diluted membranes (200 μl; equivalent to 0.25 mg wet weight of tissue/tube) were incubated with 200 μl of 20 mM HEPES buffer, pH 7.5 containing 100 mM sodium chloride and 10 mM magnesium chloride and 50 μl [^3H]N-methylscopolamine at a single concentration of 0.15 nM and 50 μl distilled water (total binding) or 50 μl test compound (at a single concentration of 10^−6 M or at 10 concentrations ranging from 10^−11-10^−3 M) or 50 μl atropine sulphate (1 μM; non-specific binding) for 30 min at 30° C. Membrane bound radioactivity was recovered by filtration under vacuum through Skatron 11734 filters using a Skatron cell harvester. Filters were rapidly washed with ice-cold 20 mM HEPES buffer, pH 7.5 (wash 1,2 at setting 5,5). The scored filter paper discs were punched out into vials, scintillation fluid added and radioactivity determined by liquid scintillation counting.
(§1) For each of these tests measuring the ability of compounds of Formula I to displace standard ligands from 5-HT1A receptors and 5-hydroxytryptamine (5-HT) and noradrenaline (NA) reuptake sites and muscarinic receptors in vitro, the percentage displacement of specific binding of tritiated ligand by 10^−6 M test compound was calculated in the following way.
(§2) Firstly, specific binding of tritiated ligand in the absence (A) and presence (B) of test compound was determined:
(§3) In the absence of compound: A(dpm)=Total binding (dpm)−Non-specific binding (dpm) In the presence of compound (10^−6 M): B(dpm)=Binding at 10^−6M (dpm)−Non-specific binding (dpm)
(§4) The specific binding of tritiated ligand in the presence (B) of compound was then converted to a percentage of specific binding of tritiated ligand in the absence (A) of compound: % Specific binding at 10^−6 M=B(dpm)/A(dpm)×100
(§5) The percentage displacement of specific binding of tritiated ligand by the test compound (10^−6 M) was then obtained by subtraction of the percentage specific binding in the presence of compound from the percentage specific binding in the absence of compound, which is taken as the maximum binding and so equals 100%:
(§6) % Displacement at 10^−6 M=100−% Specific binding at 10^−6 M.
In some cases, displacement curves were then produced for compounds which displaced ≧50% of specific binding of the tritiated ligand at 10^−6 M using a range of concentrations of the compound. The Ki was then calculated by simultaneous fitting using equations derived from the Feldman equations by robust non-linear regression to data from three experiments simultaneously (De Lean et al., 1978; Munson and Rodbard, 1980; Feldman, 1992). Munson P J and Rodbard D. Ligand: a versatile computerised approach for characterisation of ligand binding systems. Anal Biochem 1980; 107: 220. Feldman HA. Mathematical theory of complex ligand binding systems at equilibrium: some methods for parameter fitting. Anal Biochem 1992: 48, 317. De Lean A, Munson P J and Rodbard D. Simultaneous analysis of families of sigmoidal curves: application to bioassay, radioligand assay, and physiological dose-response curves. Am J Physiol 1978: 235 (2), E97-E102. […]

[2] = target: T1, 5-HT reuptake sites (Rattus norvegicus, UniProt P31652); assay: 5-HT uptake: displacement of [3H]citalopram from 5-HT reuptake sites, rat frontal cortical membranes; assay type: binding; settings: for inhibition at 1 µM: 10^−6 M test compound, single determination, [3H]citalopram; for Ki: [3H]citalopram 1.3 nM, rat frontal cortical membranes, fit to data from three experiments
T1 construct: Frontal cortical tissue from the brains of male Charles River rats; from tissue; host or cells: rat frontal cortical membranes
T1 sequence (P31652 whole entry): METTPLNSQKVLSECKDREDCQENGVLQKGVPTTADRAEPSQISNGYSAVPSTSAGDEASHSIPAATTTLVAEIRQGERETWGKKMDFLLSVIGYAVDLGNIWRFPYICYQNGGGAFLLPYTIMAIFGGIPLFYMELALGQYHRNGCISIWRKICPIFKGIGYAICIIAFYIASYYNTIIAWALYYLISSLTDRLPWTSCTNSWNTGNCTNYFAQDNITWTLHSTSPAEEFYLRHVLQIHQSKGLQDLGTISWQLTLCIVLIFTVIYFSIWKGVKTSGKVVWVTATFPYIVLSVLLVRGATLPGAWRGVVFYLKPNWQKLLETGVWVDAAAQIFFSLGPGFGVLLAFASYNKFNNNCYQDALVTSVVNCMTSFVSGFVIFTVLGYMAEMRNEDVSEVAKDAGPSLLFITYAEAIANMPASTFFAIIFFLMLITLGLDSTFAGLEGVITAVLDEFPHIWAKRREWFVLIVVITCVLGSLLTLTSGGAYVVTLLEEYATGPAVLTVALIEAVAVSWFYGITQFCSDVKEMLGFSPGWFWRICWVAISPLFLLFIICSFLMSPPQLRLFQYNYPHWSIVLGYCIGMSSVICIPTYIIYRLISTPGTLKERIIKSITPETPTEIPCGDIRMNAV
Method: Frontal cortical tissue from the brains of male Charles River rats weighing 150-250 g was homogenised in ice-cold 50 mM Tris-HCl, pH 7.4 (when measured at 25° C.) containing 120 mM sodium chloride and 5 mM potassium chloride (Tris buffer; 1:30 w/v) and centrifuged at 40,000 g for 10 minutes. The supernatant was discarded and the pellet rehomogenised in Tris buffer, 1:60 w/v, and centrifuged at 40,000 g for 10 minutes. This step was repeated a further time. The final pellet was resuspended in 50 mM Tris-HCl, pH 7.4 containing 120 mM sodium chloride and 5 mM potassium chloride (equivalent to 3.125 mg wet weight of tissue/ml) and used immediately in the binding assay. All centrifugations were performed at 4° C.
Membranes (400 μl; equivalent to 1.25 mg wet weight of tissue/tube) were incubated with 50 μl [^3H]citalopram at a single concentration of 1.3 nM and 50 μl of distilled water (total binding) or 50 μl of test compound (at a single concentration of 10^−6 M or at 10 concentrations ranging from 10^−11-10^−3 M) or 50 μl of paroxetine (0.5 μM; non-specific binding) for 1 h at 27° C. Membrane bound radioactivity was recovered by filtration under vacuum through Skatron 11734 filters presoaked in 0.5% PEI using a Skatron Cell Harvester. Filters were then washed in ice-cold 50 mM Tris-HCl buffer, pH 7.4 (at 25° C., wash setting 9,9,0). The scored filter paper discs were punched out into vials, scintillation fluid added and radioactivity determined by liquid scintillation counting.
as §1, §2, §3, §4, §5, §6
In some cases, displacement curves were then produced for compounds which displaced ≧50% of specific binding of the tritiated ligand at 10^−6 M using a range of concentrations of the compound. The Ki was then calculated by simultaneous fitting using equations derived from the Feldman equations by robust non-linear regression to data from three experiments simultaneously (De Lean et al., 1978; Munson and Rodbard, 1980; Feldman, 1992). Munson P J and Rodbard D. Ligand: a versatile computerised approach for characterisation of ligand binding systems. Anal Biochem 1980; 107: 220. Feldman HA. Mathematical theory of complex ligand binding systems at equilibrium: some methods for parameter fitting. Anal Biochem 1992: 48, 317. De Lean A, Munson P J and Rodbard D. Simultaneous analysis of families of sigmoidal curves: application to bioassay, radioligand assay, and physiological dose-response curves. Am J Physiol 1978: 235 (2), E97-E102.
The results obtained in the above tests for 5-HT1A binding and 5-HT and NA uptake and muscarinic binding for the final products of Examples 1-39 hereinafter are given in Table 1 below. Kis are in nM. % Figures are for % displacement at 10^−6 M for a single determination.

Compound | melting point [°C] | Muscarinic % displacement at 10^−6 M [1] [%] | inhibition at 1 µM [2] [%] | Ki [2] [nM] | Ki [1] [nM] | Ki ([1]; fumarate) [nM]
Br.CCC1=C(c2cc3cc(Cl)ccc3s2)N2CCN=C2S1 [Example 11, 3-(5-chlorobenzo[b]thiophen-2-yl)-2-ethyl-5,6-dihydroimidazo[2,1-b]thiazole hydrobromide] | 282 to 284 | 44 | 97 |  |  | 
Br.CC1=C(c2cc3c(Cl)cccc3s2)N2CCN=C2S1 [Example 10, 3-(4-chlorobenzo[b]thiophen-2-yl)-2-methyl-5,6-dihydroimidazo[2,1-b]thiazole hydrobromide] | 246 to 248 | 12 |  | 29.3 |  | 
CC1=C(c2cccc3ccsc23)N2CCN=C2S1.Cl [Example 23, 3-(benzo[b]thiophen-7-yl)-2-methyl-5,6-dihydroimidazo[2,1-b]thiazole hydrochloride] | 210 to 212 | −5 |  | 229 |  | 
CC1=C(c2cccc3sc(C)cc23)N2CCN=C2S1.Cl [Example 33, 2-methyl-3-(2-methylbenzo[b]thiophen-4-yl)-5,6-dihydroimidazo[2,1-b]thiazole hydrochloride] | 271 | 38 | 62 |  |  | 
Br.C=CCC1=C(c2cccc3sccc23)N2CCN=C2S1 [Example 36, 2-allyl-3-(benzo[b]thiophen-4-yl)-5,6-dihydroimidazo[2,1-b]thiazole hydrobromide] | 188 to 190 |  |  | 89 | 66 | 
Br.CC1=C(c2ccc3sccc3c2)N2CCN=C2S1 [Example 21, 3-(benzo[b]thiophen-5-yl)-2-methyl-5,6-dihydroimidazo[2,1-b]thiazole hydrobromide] | 285 | 9 |  | 92 |  | 
CSC1=C(c2cccc3sccc23)N2CCN=C2S1.Cl [Example 22, 3-(benzo[b]thiophen-4-yl)-2-(methylthio)-5,6-dihydroimidazo[2,1-b]thiazole hydrochloride] | 95 to 105 |  |  | 85 | 439 | 
Br.CC1=C(c2cc3c(Cl)cccc3s2)N2CCCN=C2S1 [Example 17, 3-(4-chlorobenzo[b]thiophen-2-yl)-2-methyl-6,7-dihydro-5H-thiazolo[3,2-a]pyrimidine hydrobromide] | 236 to 238 | 29 | 84 |  |  | 
Br.CC1=C(c2cc3c(F)cccc3s2)N2CCN=C2S1 [Example 7, 3-(4-fluorobenzo[b]thiophen-2-yl)-2-methyl-5,6-dihydroimidazo[2,1-b]thiazole hydrobromide] | 224 to 226 | 17 |  | 127 |  | 
OCC1=C(c2cc3c(Cl)cccc3s2)N2CCN=C2S1 [Example 4, [3-(4-chlorobenzo[b]thiophen-2-yl)-5,6-dihydroimidazo[2,1-b]thiazol-2-yl]methanol] | 170 to 172 | 0 |  | 36 |  | 
OCC1=C(c2cccc3sccc23)N2CCN=C2S1 [Example 3, [3-(benzo[b]thiophen-4-yl)-5,6-dihydroimidazo[2,1-b]thiazol-2-yl]methanol] | 145 to 149 | −3 |  | 175 |  | 
C1=C(c2cccc3sccc23)N2CCN=C2S1.Cl [Example 2, 3-(benzo[b]thiophen-4-yl)-5,6-dihydroimidazo[2,1-b]thiazole hydrochloride] | 246 to 249 | 20 |  | 45 |  | 
CCC1=C(c2ccc3sccc3c2)N2CCN=C2S1.O=C(O)/C=C/C(=O)O [Example 31, 3-(benzo[b]thiophen-5-yl)-2-ethyl-5,6-dihydroimidazo[2,1-b]thiazole fumarate] | 145 to 150 | 26 |  | 35 |  | 
Br.Clc1cccc2sc(C3=CSC4=NCCN34)cc12 [Example 1, 3-(4-chlorobenzo[b]thiophen-2-yl)-5,6-dihydroimidazo[2,1-b]thiazole hydrobromide] | 273 to 274 | 7 | 97 |  |  | 
CSC1=C(c2cc3ccccc3s2)N2CCN=C2S1 [Example 19, 3-(benzo[b]thiophen-2-yl)-2-(methylthio)-5,6-dihydroimidazo[2,1-b]thiazole] | 95 to 97 | 2 |  | 39 |  | 
CSC1=C(c2cccc3sccc23)N2CCN=C2S1.O=C(O)/C=C/C(=O)O [Example 32, 3-(benzo[b]thiophen-4-yl)-2-(methylthio)-5,6-dihydroimidazo[2,1-b]thiazole fumarate] | 185 to 187 |  |  | 223 |  | 331
Cl.Fc1cccc2sc(C3=CSC4=NCCN34)cc12 [Example 5, 3-(4-fluorobenzo[b]thiophen-2-yl)-5,6-dihydroimidazo[2,1-b]thiazole hydrochloride] | 220 to 224 | 42 | 95 |  |  | 
Br.COc1cccc2cc(C3=C(C)SC4=NCCN43)sc12 [Example 26, 3-(7-methoxybenzo[b]thiophen-2-yl)-2-methyl-5,6-dihydroimidazo[2,1-b]thiazole hydrobromide] | 270 to 272 | −11 | 64 |  |  | 
